Measured values published in US5652222A, “Selective inhibition of leukemic cell proliferation by bcr-abl antisense oligonucleotides” (Temple University-of The Commonwealth System of Higher …, priority 1993, dated 1997).
“Also recorded” adds a separate entry of the source.

Columns and labels:
BV173 cells = experiment: Macroscopic examination / disease state of leukemic SCID mice; assay type: in vivo, SCID mice (human leukemic cells)
Procedure: Injection of the mice with BV173 cells induces a disease closely resembling that in human leukemia patients.
To determine whether synthetic phosphorothioate oligodeoxynucleotides targeted against the bcr-abl junction of […] cells would modify the disease process in SCID mice. SCID mice were injected with 10^6 BV173 cells. The mice then received 1 mg of sense (ATCAATAAGG AAGCCCTTCAGCG, SEQ ID NO:34) or antisense ([…] ATTGAT, SEQ ID NO:29) b2/a2 bcr-abl phosphorothioate oligodeoxynucleotides (pyrogen leven <1 Eu/mg; 0.2 ml in Iscove modified Dulbecco medium in 5-10 seconds) intravenously for each of 9 consecutive days, beginning either 7 or 21 days after introducing 10^6 BV173 cells. Control mice received the diluent (iscove's modified Dulbecco medium) only. These time points approximate distinct disease stages in humans.

bcr-abl transcripts = experiment: bcr-abl transcript in residual colonies (RT-PCR); assay type: cell-based, human; conditions: colonies arising from mixed cell populations of Example 3
Procedure: To provide unambiguous evidence of the elimination of Philadelphia chromosome blast cells, residual cells from Example 3 were evaluated for the expression of bcr-abl transcripts, since the levels of this transcript should reflect the number of surviving leukemia cells. For this purpose, total RNA was isolated from a pool of colonies from Example 3, and the levels of bcr-abl transcripts were evaluated. Levels of β2 -microglobulin transcript were also determined as a control. The β2 -microglobulin gene is expressed independent of cell cycle.
Accordingly, bcr-abl and β2 -microglobulin transcripts were reverse-transcribed and amplified in the presence of specific primers and Taq polymerase as described by Rappollee, Science 241, 708-712 (1988). The amplification products were separated on a 2% agarose gel and transferred to a nitrocellulose filter, which was hybridized with a synthetic 40-nucleotide c-abl fragment and a 40-nucleotide β2 -microglobulin fragment and labeled with [γ-^32 P]-ATP and polynucleotide kinase. The c-abl probe recognizes the amplified 257-nucleotide sequence of FIG. 1, which contains the L-6 type bcr-abl junction. The β2 -microglobulin probe recognizes the 195-nucleotide sequence contained within 5' and 3' β2 -microglobulin primers (Id.; Suggs et al., Proc. Natl. Acad. Sci. U.S.A. 78, 6613 (1981)).

[1] = system: cells of CML patients in blast crisis, K-28 (b3a2) type junction; experiment: Colony formation of CML blast crisis patient cells expressing the b3a2 (K-28) junction; assay type: cell-based, human; conditions: antisense to L-6 junction on K-28 cells, compared with untreated cells
Description: To identify CML blast crisis patients carrying the second common type junction, in which bcr exon 3 is juxtaposed to c-abl exon 2, total RNA derived from cells of CML patients in blast crisis was reverse-transcribedwith synthetic primers. The 3' primer (SEQ ID NO:10) was complementary to 22 nucleotides of c-abl. exon 2. The 5' primer was the 22-mer GTCATCGTCCACTCAGCCACTG (SEQ ID NO:12) complementary to 22 nucleotides of bcr exon 3. The RNA was amplified by polymerase chain reaction according to Example 1. The amplification products were then hybridized with the synthetic 18-mer oligonucleotide GAAGGGCTTT TGAACTCT (SEQ ID NO:6), which is complementary to the b3a2 junction. After cloning of breakpoints in two patients, sequence analysis of several clones identified the b3a2 junction as precisely corresponding to the K-28 breakpoint shown in FIG. 3. (SEQ ID NO:4).
Utilizing the culture condition and oligomer treatment conditions of Example 1, cells were exposed to either no oligomer (FIG. 4A), the 18-nucleotide synthetic oligomer GAAGTGCTGT TGAACTCT (SEQ ID NO:5) partially complementary to the b3a2 junction, containing 9 nucleotides corresponding to bcr and 9 nucleotides corresponding to c-abl but with two mismatches (FIG. 4B); or the 18-nucleotide synthetic oligomer GAAGGGCTTT TGAACTCT (SEQ ID NO:6) completely complementary to the same bcr-abl junction (FIG. 4C).

[2] = system: 1:1 mixtures of normal marrow progenitors and CML blast crisis cells; experiment: CFU-GM + CFU-L colony formation of 1:1 mixtures of normal marrow progenitors and CML blast crisis cells; assay type: cell-based, human; conditions: Table 3; 1:1 mixture; 40 μg/ml at 0 h, 20 μg/ml 18 h later; 12 days; mean ± SD; control 978 ± 24
Description: Normal bone marrow mononuclear cells (MNC) were obtained by aspiration from consenting volunteers and enriched for hematopoietic progenitors as previously reported by numerous investigators (Zamecnick et al., Proc. Natl. Acad. Sci. U.S.A. 83, 4143-4147 (1986); Caracciolo et al., J. Clin. Invest. 85, 55-61 (1990)). In brief, marrow cells were subjected to Ficoll-Hypaque density gradient sedimentation and then depleted of adherent monocyte-macrophage and T-lymphocytes by adherence to plastic Petri dishes and rosetting with neuraminidase-treated sheep red blood cells, respectively. Philadelphia chromosome-positive blast cells were isolated by Ficoll-Hypaque density gradient sedimentation from a CML patient in blast crisis (L-6 type junction). […] The residual non-blast cells had the morphological appearance of small lymphocytes. 25,000 MNC and 25,000 CML blast cells were combined and incubated with bcr-abl breakpoint-Specific antisense oligomer (SEQ ID NO:3) (40 μg/ml at h 0; 20 μg/ml 18 hours later) or with a 4 nucleotide mismatch bcr-abl antisense oligomer (SEQ ID NO:2) (40 μg/ml at 0 h; 20 μg/ml 18 hours later) or left untreated. […] At the end of the incubation period colonies were counted. […]

Substance | evidence of active leukemic disease process (BV173 cells; 1 mg/mouse x9 i.v. from day 7 or 21) | macroscopic examination: leukemic nodules in liver and kidneys (BV173 cells; from day +7, 26 days after last treatment (6 weeks)) | splenomegaly and leukemic metastases in the liver (BV173 cells; from day +21, 12 days after last treatment (6 weeks)) | macroscopic examination: metastases / leukemic nodules in liver, kidneys, splenomegaly (BV173 cells; from day +21, 26 days after treatment (8 weeks), FIG. 11) | bcr-abl transcript in RNA from colonies (bcr-abl transcripts) | inhibition of colony formation [1] | reduction of colony formation [1] | Colonies or Clusters, CFU-GM + CFU-L [2]
SEQ ID NO:34: phosphorothioate sense sequence ATCAATAAGGAAGCCCTTCAGCG (23-mer b2a2 sense) (sense ATCAATAAGGAAGCCCTTCAGCG; all phosphorothioate, sugars by position and methylation of C not given here) | macroscopic, microscopic and molecular evidence of an active leukemic disease process | in addition to spleen enlargement, the presence of distinct leukemic nodules in liver and kidneys | splenomegaly and leukemic metastases in the liver were detected | numerous metastases in the liver (FIG. 11A), a few in the kidneys, and splenomegaly; also recorded: Numerous distinct leukemic nodules are visible in the liver | – | – | – | –
SEQ ID NO:3: synthetic 18-mer GAAGGGCTTC TTCCTTAT specific for the 18-nucleotide target sequence of the L-6 bcr-abl junction (antisense GAAGGGCTTCTTCCTTAT; chemistry not given here) | – | – | – | – | No bcr-abl transcript was detected | 2.5-5% | No significant reduction of colony formation | 450 ± 42 colonies or clusters
